In patent publication US10723741B1, “DNA polymerase IIIC inhibitors and use thereof” (Acurx Pharmaceuticals, LLC, priority 2018, dated 2020):
Values after ≈ are worked out from the molar mass of the structure shown. Where a name gives a salt, the structure may show the parent alone. Read-outs that look alike come from different tables or passages of the source.

How the values were obtained:
Assay type in all cases: cell-based
[1] = system: Staphylococcus aureus NRS384 (MRSA); test: Broth microdilution MIC, S. aureus NRS384 (MRSA); parameters: MIC NRS 384 (MRSA): unit not given here; conditions: broth microdilution, 37° C., 20 hours; for MIC: Staphylococcus aureus
Outline: (§1)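 Broth microdilution in strain-specific test medium with ~5.0×10^5 cfu/ml inoculum, 1% DMSO and two-fold compound dilutions from 64 to 0.0625 μg/ml. Plates were held 20 hours at 37° C in ambient air. S. pneumoniae colonies were grown beforehand on blood agar in 5% CO2.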

[2] = system: Staphylococcus aureus ATCC 29213 (MSSA); test: Broth microdilution MIC, S. aureus ATCC 29213 (MSSA); conditions: read-out: MIC S. aureus ATCC 29213 (MSSA)
Outline: as §1

[3] = system: Enterococcus faecalis ATCC 29212; test: Broth microdilution MIC, E. faecalis ATCC 29212; conditions: read-out: MIC E. faecalis ATCC 29212
Outline: as §1

[4] = system: Enterococcus faecium ATCC 700221 (VRE); test: Broth microdilution MIC, E. faecium ATCC 700221 (VRE); parameters: MIC E. faecium ATCC 700221 (VRE): unit: ug/mL; conditions: broth microdilution, 37° C., 20 hours; for MIC: Enterococcus faecium
Outline: as §1

[5] = system: Streptococcus pneumoniae ATCC 49619; test: Broth microdilution MIC, S. pneumoniae ATCC 49619; conditions: read-out: MIC S. pneumoniae ATCC 49619
Outline: as §1

[6] = system: Bacillus subtilis ATCC 6633; test: Broth microdilution MIC, B. subtilis ATCC 6633; conditions: read-out: MIC B. subtilis ATCC 6633
Outline: as §1

[7] = system: Escherichia coli ATCC 25922; test: Broth microdilution MIC, E. coli ATCC 25922 (MHIIB w & w/o 4 mM EDTA); conditions: for MIC: Escherichia coli, read-out: MIC E. coli ATCC 25922; for MIC E. coli ATCC 25922 + 4 mM EDTA: with 4 mM EDTA
Outline: as §1

[8] = broth microdilution, 37° C., 20 hours
[9] = ATCC29212, broth microdilution, 37° C., 20 hours
[10] = read-out: MIC E. faecium ATCC 700221 (VRE)
[11] = ATCC49619, broth microdilution, 37° C., 20 hours
[12] = ATCC6633, broth microdilution, 37° C., 20 hours
[13] = ATCC25922, without EDTA, broth microdilution, 37° C., 20 hours

| SMILES | MIC ([1]; read-out: MIC NRS 384 (MRSA)) [µg/mL] | MIC [2, 8] [µg/mL] | MIC [3, 9] [µg/mL] | MIC [4, 10] [µg/mL] | MIC [5, 11] [µg/mL] | MIC [6, 12] [µg/mL] | MIC [7, 13] [µg/mL] | MIC E. coli ATCC 25922 + 4 mM EDTA [7, 8] [µg/mL] | MIC NRS 384 (MRSA) [1] | MIC ([2]; 20 h) [µg/mL] | MIC ([3]; ATCC29212, 20 h) [µg/mL] | MIC E. faecium ATCC 700221 (VRE) [4] | MIC ([5]; ATCC49619, 20 h) [µg/mL] | MIC ([6]; ATCC6633, 20 h) [µg/mL] | MIC ([7]; ATCC25922, 20 h) [µg/mL] | MIC ([1]; S. aureus NRS 384, read-out: MIC NRS 384 (MRSA)) [µg/mL] | MIC ([1]; MHIIB, read-out: MIC against S. aureus NRS 384 (MRSA)) [µg/mL] | MIC ([4]; MHIIB, read-out: MIC against E. faecium ATCC 700221 (VRE)) [µg/mL] |
| --- | --- | --- | --- | --- | --- | --- | --- | --- | --- | --- | --- | --- | --- | --- | --- | --- | --- | --- |
| COc1cncc(C(=O)N2CCC(n3ncc4nc(NCc5ccc(Cl)c(Cl)c5)[nH]c(=O)c43)CC2)c1.Cl [Compound 260, 5-((3,4-Dichlorobenzyl)amino)-1-(1-(5-methoxynicotinoyl)piperidin-4-yl)-1H-pyrazolo[4,3-d]pyrimidin-7(6H)-one hydrochloride] | 4 | 4 | 4 | 2 | 4 | 1 | > 64 | >64 | – | – | – | – | – | – | – | – | – | – |
| O=c1[nH]c(NCc2ccc(Cl)c(Cl)c2)nc2cnn(CC3CCCN3c3ccccn3)c12 (centres unmarked) [Compound 182, 5-((3,4-dichlorobenzyl)amino)-1-((1-(pyridin-2-yl)pyrrolidin-2-yl)methyl)-1H-pyrazolo[4,3-d]pyrimidin-7(6H)-one dihydrochloride] | – | – | – | – | – | – | – | >64 | 4/8 | 4 | 8 | 4/2 | 8 | 2 | > 64 | – | – | – |
| CN(CCn1ncc2nc(NCc3ccc(Cl)c(Cl)c3)[nH]c(=O)c21)C(=O)c1cc(Cl)nnc1O [Compound 81, 6-Chloro-N-(2-(5-((3,4-dichlorobenzyl)amino)-7-oxo-6,7-dihydro-1H-pyrazolo[4,3-d]pyrimidin-1-yl)ethyl)-3-hydroxy-N-methylpyridazine-4-carboxamide] | 64 (≈ 122 µM) | 64 (≈ 122 µM) | 32 (≈ 61.1 µM) | 32 (≈ 61.1 µM) | 8 (≈ 15.3 µM) | 64 (≈ 122 µM) | > 64 | 64 | – | – | – | – | – | – | – | – | – | – |
| O=c1[nH]c(NCc2ccc(Cl)c(Cl)c2)nc2cnn(Cc3ccccc3)c12 [Compound 127, 1-Benzyl-5-((3,4-dichlorobenzyl)amino)-1H-pyrazolo[4,3-d]pyrimidin-7(6H)-one] | > 64 | > 64 | > 64 | 32 (≈ 79.9 µM) | > 64 | 1 (≈ 2.5 µM) | > 64 | >64 | – | – | – | – | – | – | – | – | – | – |
| CC(C)(C)NS(=O)(=O)CCn1ncc2nc(NCc3ccc(Cl)c(Cl)c3)[nH]c(=O)c21 [Compound 238, N-(tert-butyl)-2-(5-((3,4-dichlorobenzyl)amino)-7-oxo-6,7-dihydro-1H-pyrazolo[4,3-d]pyrimidin-1-yl)ethanesulfonamide] | 4 (≈ 8.45 µM) | 8 (≈ 16.9 µM) | 8 (≈ 16.9 µM) | 2 (≈ 4.22 µM) | 8 (≈ 16.9 µM) | 4 (≈ 8.45 µM) | > 64 | >64 | – | – | – | – | – | – | – | – | – | – |
| O=c1[nH]c(NCc2ccc(Cl)c(Cl)c2)nc2c(Cl)nn(Cc3cocn3)c12 [Compound 307, 3-Chloro-5-((3,4-dichlorobenzyl)amino)-1-(oxazol-4-ylmethyl)-1H-pyrazolo[4,3-d]pyrimidin-7(6H)-one] | – | 1 (≈ 2.35 µM) | 2 (≈ 4.7 µM) | 1 (≈ 2.35 µM) | 4 (≈ 9.4 µM) | 0.5 (≈ 1.17 µM) | > 64 | >64 | – | – | – | – | – | – | – | 1 (≈ 2.35 µM) | ≤ 1 | ≤ 1 |
| O=C(O)COCCn1ncc2nc(NCc3ccc(Cl)c(Cl)c3)[nH]c(=O)c21 [Compound 283, 2-[2-[5-[(3,4-dichlorophenyl)methylamino]-7-oxo-6H-pyrazolo[4,3-d]pyrimidin-1-yl]ethoxy]acetic acid] | > 64 | > 64 | > 64 | > 64 | > 64 | > 64 | > 64 | >64 | – | – | – | – | – | – | – | – | – | – |
| O=c1[nH]c(NCc2ccc(Cl)c(Cl)c2)nc2cnn(C3COC3)c12 [Compound 142, 5-((3,4-Dichlorobenzyl)amino)-1-(oxetan-3-yl)-1H-pyrazolo[4,3-d]pyrimidin-7(6H)-one] | 2 (≈ 5.46 µM) | 4 (≈ 10.9 µM) | 4 (≈ 10.9 µM) | 2 (≈ 5.46 µM) | 4 (≈ 10.9 µM) | 1 (≈ 2.73 µM) | > 64 | >64 | – | – | – | – | – | – | – | – | – | – |
| CNC(=N)NCCn1ncc2nc(NCc3ccc(Cl)c(Cl)c3)[nH]c(=O)c21.Cl [Compound 294, 1-(2-(5-((3,4-Dichlorobenzyl)amino)-7-oxo-6,7-dihydro-1H-pyrazolo[4,3-d]pyrimidin-1-yl)ethyl)-3-methylguanidine hydrochloride] | 32 | 32 | 64 | 64 | 32 | 16 | > 64 | 64 | – | – | – | – | – | – | – | – | – | – |
| O=c1[nH]c(NCc2ccc(Cl)c(Cl)c2)nc2c(F)n[nH]c12 [Compound 54, 5-[(3,4-Dichlorophenyl)methylamino]-3-fluoro-1,6-dihydropyrazolo[4,3-d]pyrimidin-7-one] | 8 (≈ 24.4 µM) | 8 (≈ 24.4 µM) | 16 (≈ 48.8 µM) | 4 (≈ 12.2 µM) | 32 (≈ 97.5 µM) | 4 (≈ 12.2 µM) | > 64 | >64 | – | – | – | – | – | – | – | – | – | – |
| Cn1ccnc1Cn1ncc2nc(NCc3ccc(Cl)c(Cl)c3)[nH]c(=O)c21 [Compound 97, 5-((3,4-Dichlorobenzyl)amino)-1-((1-methyl-1H-imidazol-2-yl)methyl)-1H-pyrazolo[4,3-d]pyrimidin-7(6H)-one] | 8 (≈ 19.8 µM) | 8 (≈ 19.8 µM) | > 64 | 8 (≈ 19.8 µM) | 4 (≈ 9.89 µM) | 8 (≈ 19.8 µM) | > 64 | >64 | – | – | – | – | – | – | – | – | – | – |
| CNCC(COC)OCCn1ncc2nc(NCc3ccc(Cl)c(Cl)c3)[nH]c(=O)c21.Cl (centres unmarked) [Compound 184, 5-((3,4-dichlorobenzyl)amino)-1-(2-((1-methoxy-3-(methylamino)propan-2-yl)oxy)ethyl)-1H-pyrazolo[4,3-d]pyrimidin-7(6H)-one] | 64 | 64 | 64 | 64 | 8 | 8 | > 64 | 64 | – | – | – | – | – | – | – | – | – | – |
| O=c1[nH]c(NCc2ccc(Cl)c(Cl)c2)nc2c(Cl)n[nH]c12 [Compound 55, 3-Chloro-5-[(3,4-dichlorophenyl)methylamino]-1,6-dihydropyrazolo[4,3-d]pyrimidin-7-one] | 4 (≈ 11.6 µM) | 4 (≈ 11.6 µM) | 8 (≈ 23.2 µM) | 4 (≈ 11.6 µM) | 8 (≈ 23.2 µM) | 2 (≈ 5.8 µM) | > 64 | 64 | – | – | – | – | – | – | – | – | – | – |
| O=c1[nH]c(NCc2ccc(Cl)c(Cl)c2)nc2cnn(CCS(=O)(=O)CCO)c12 [Compound 164, 5-((3,4-dichlorobenzyl)amino)-1-(2-((2-hydroxyethyl)sulfonyl)ethyl)-1H-pyrazolo[4,3-d]pyrimidin-7(6H)-one] | 64 (≈ 143 µM) | 32 (≈ 71.7 µM) | 32 (≈ 71.7 µM) | 16 (≈ 35.8 µM) | 4 (≈ 8.96 µM) | 16 (≈ 35.8 µM) | > 64 | >64 | – | – | – | – | – | – | – | – | – | – |
| Cc1ccncc1C(=O)N1CCC(n2ncc3nc(NCc4ccc(Cl)c(Cl)c4)[nH]c(=O)c32)CC1.Cl [Compound 267, 5-((3,4-Dichlorobenzyl)amino)-1-(1-(4-methylnicotinoyl)piperidin-4-yl)-1H-pyrazolo[4,3-d]pyrimidin-7(6H)-one hydrochloride] | 4 | 4 | 4 | 2 | 4 | 1 | > 64 | >64 | – | – | – | – | – | – | – | – | – | – |
